PubChem BioAssay (NCI)
Where “and” joins values, the source holds several entries; their conditions need not be identical. Equal entries are not always repeated.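 Each compound was tested at five concentrations against cells in 96-well plates for 48 hours. GI50 is the concentration that inhibits growth by half. The concentration for full growth arrest is given as TGI.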

Tests used:
Experiment in all cases: NCI-60 cell line screen, 48 h
[1] = tested on: RPMI-8226 leukemia
[2] = tested on: HCC-2998 colon
[3] = tested on: SNB-75 CNS
[4] = tested on: HOP-92 NSCLC
[5] = tested on: U251 CNS
[6] = tested on: IGROV1 ovarian
[7] = tested on: SK-MEL-5 melanoma
[8] = tested on: SNB-78 CNS
[9] = tested on: KM20L2 colon
[10] = tested on: HOP-62 NSCLC

N#CC1(N2CCCC2)CCC2(CC1)OCCO2
TGI [1]: > 100 µM
TGI [2]: > 100 µM
TGI [3]: > 100 µM
TGI [4]: > 100 µM
TGI [5]: > 100 µM
TGI [6]: > 100 µM
TGI [7]: > 100 µM
TGI [8]: > 100 µM
TGI [9]: > 100 µM
TGI [10]: > 100 µM

CC(=O)OC1=C2CC[C@@H]3C(CC[C@@]4(C)C3CC[C@@H]4OC(C)=O)[C@@]2(C)CC(C#N)C1=O (stereo partly specified)
TGI [1]: 46.9 µM
TGI [2]: > 100 µM
TGI [3]: 72.9 µM
TGI [4]: 54.9 µM
TGI [5]: 90.5 µM
TGI [6]: 61.4 µM
TGI [7]: 49.4 µM
TGI [8]: 90.8 µM
TGI [9]: > 100 µM
TGI [10]: > 100 µM

Brc1ccc(C=NC23CC4CC(CC(C4)C2)C3)cc1
TGI [1]: > 100 µM
TGI [2]: > 100 µM
TGI [3]: > 100 µM
TGI [4]: > 100 µM
TGI [5]: > 100 µM
TGI [6]: > 100 µM
TGI [7]: > 100 µM
TGI [8]: > 100 µM
TGI [9]: > 100 µM
TGI [10]: > 100 µM

C[N+](C)(C)C1CC([N+](C)(C)C)C2c3ccccc3C21 (stereo unspecified)
TGI [1]: > 100 µM
TGI [2]: > 100 µM
TGI [3]: > 100 µM
TGI [4]: > 100 µM
TGI [5]: > 100 µM
TGI [6]: > 100 µM
TGI [7]: > 100 µM
TGI [8]: > 100 µM
TGI [9]: > 100 µM
TGI [10]: > 100 µM

[Co].[O-]c1cccnc1C=Nc1ccccc1.[OH3+]
GI50 [1]: > 100 µM
TGI [1]: > 100 µM
GI50 [3]: 49.7 µM
TGI [3]: > 100 µM
GI50 [4]: 28.7 µM
TGI [4]: > 100 µM
GI50 [5]: > 100 µM
TGI [5]: > 100 µM
GI50 [6]: > 100 µM
TGI [6]: > 100 µM
GI50 [7]: > 100 µM
TGI [7]: > 100 µM
GI50 [8]: > 100 µM
TGI [8]: > 100 µM
GI50 [9]: > 100000 nM
TGI [9]: > 100 µM

Cc1ccc(/C=N/NS(=O)(=O)c2ccccc2)cc1C
TGI [1]: > 100 µM
TGI [2]: > 100 µM
TGI [3]: > 100 µM
TGI [4]: > 100 µM
TGI [5]: > 100 µM
TGI [6]: > 100 µM
TGI [7]: > 100 µM
TGI [8]: > 100 µM
TGI [9]: > 100 µM
TGI [10]: > 100 µM

Cc1[nH]c2ccccc2c1C1=NO/C(=N\O)C(c2c(C)[nH]c3ccccc23)C1 (stereo unspecified)
TGI [1]: > 100 µM
TGI [2]: > 100 µM
TGI [3]: > 100 µM
TGI [4]: > 78.5 µM
TGI [5]: > 100 µM
TGI [6]: > 100 µM
TGI [7]: > 31.6 µM
TGI [8]: > 100 µM
TGI [9]: 50.5 µM
TGI [10]: 64.6 µM

CN(C)CCN(C)C(=O)c1cccc2cccc(C(=O)O)c12
TGI [1]: > 100 µM
TGI [2]: > 100 µM
TGI [3]: > 100 µM
TGI [4]: > 100 µM
TGI [5]: > 100 µM
TGI [6]: > 100 µM
TGI [7]: > 100 µM
TGI [8]: > 100 µM
TGI [9]: > 100 µM
TGI [10]: > 100 µM

COc1ccc(C[C@]23CCC(=O)N2CCc2cc(OC)c(O)cc23)cc1O
TGI [1]: > 100 µM
TGI [2]: > 100 µM
TGI [3]: > 100 µM
TGI [4]: > 100 µM
TGI [6]: > 100 µM
TGI [7]: > 100 µM
TGI [8]: > 100 µM
TGI [9]: > 100 µM
TGI [10]: > 100 µM

COc1ccccc1NC(=O)CC(=O)n1nc(C)c(N=Nc2ccccc2Cl)c1C
TGI [1]: > 100 µM
TGI [2]: > 100 µM
TGI [3]: 57.2 µM
TGI [4]: > 100 µM
TGI [5]: > 44.2 µM
TGI [6]: > 100 µM
TGI [7]: > 100 µM
TGI [8]: 57.1 µM
TGI [9]: > 100 µM
TGI [10]: > 100 µM

C/C(=C\C(C[C@](C)(O)C(O)CCC#C[Si](C)(C)C)S(=O)(=O)c1ccccc1)CC/C=C/CO[Si](C)(C)C(C)(C)C (stereo partly specified)
TGI [1]: 31.6 µM
TGI [2]: 40.6 µM
TGI [4]: 25.5 µM
TGI [5]: 26.5 µM
TGI [6]: 41 µM
TGI [7]: 28.1 µM
TGI [8]: 35.6 µM
TGI [9]: 24 µM
TGI [10]: 39.2 µM

O=C(O)CCSC(=O)Nc1cccc2ccccc12
TGI [1]: > 100 µM
TGI [2]: > 100 µM
TGI [3]: > 100 µM
TGI [4]: > 100 µM
TGI [5]: > 100 µM
TGI [6]: > 100 µM
TGI [7]: > 100 µM
TGI [8]: > 100 µM
TGI [9]: > 100 µM
TGI [10]: > 100 µM

O=C(CC1(O)C(=O)Nc2ccccc21)c1ccc(Cl)cc1Cl (stereo unspecified)
TGI [1]: > 100 µM
TGI [3]: > 100 µM
TGI [4]: > 100 µM
TGI [6]: > 100 µM
TGI [7]: > 100 µM
TGI [8]: > 100 µM
TGI [9]: > 100 µM

CCC[CH2][Sn]1([CH2]CCC)[O]CC[S]1
GI50 [1]: 0.162 µM
TGI [1]: 0.551 µM
GI50 [2]: 1.05 µM
TGI [2]: 2.26 µM
GI50 [3]: 0.61 µM
TGI [3]: 1.92 µM
GI50 [4]: 0.656 µM
TGI [4]: 2.19 µM
GI50 [5]: 0.564 µM
TGI [5]: 1.64 µM
GI50 [6]: 1.55 µM
TGI [6]: 4.64 µM
GI50 [7]: 0.324 µM
TGI [7]: 1.15 µM
GI50 [8]: 0.494 µM
TGI [8]: 2.26 µM
GI50 [9]: 1410 nM
TGI [9]: 2.75 µM
GI50 [10]: 2.09 µM
TGI [10]: 3.59 µM

CC1OC(CC(=O)O)Cc2c1c(O)c1c(O)cc(-c3cc(=O)c4c(=O)c5c(c(=O)c=4c3=O)CC(CC(=O)O)OC5C)c(O)c1c2O (stereo unspecified)
GI50 [1]: 20.9 µM
TGI [1]: 81.6 µM and 68.7 µM
GI50 [2]: 18.9 µM
TGI [2]: > 73.9 µM and 55.2 µM
GI50 [3]: 19.4 µM
TGI [3]: > 100 µM and 57.1 µM
TGI [4]: 41.3 µM
GI50 [5]: 26.1 µM
TGI [5]: > 74 µM and 61 µM
TGI [6]: > 86.3 µM
GI50 [7]: 60.9 µM
TGI [7]: 31.9 µM
TGI [8]: > 73 µM
TGI [9]: > 68 µM
GI50 [10]: 71 µM
TGI [10]: > 100 µM

C[C@]12CCc3nonc3C1CC[C@@H]1C2CC[C@@]2(C)C1CC[C@@H]2O (stereo partly specified)
TGI [1]: > 100 µM
TGI [2]: > 100 µM
TGI [3]: > 100 µM
TGI [4]: > 100 µM
TGI [5]: > 100 µM
TGI [6]: > 100 µM
TGI [7]: > 100 µM
TGI [8]: > 100 µM
TGI [9]: > 100 µM
TGI [10]: > 100 µM

CC(=O)NCc1c(C(N)=O)ncn1Cc1ccccc1
TGI [1]: > 100 µM
TGI [2]: > 100 µM
TGI [3]: > 100 µM
TGI [4]: > 100 µM
TGI [5]: > 100 µM
TGI [6]: > 100 µM
TGI [7]: > 100 µM
TGI [8]: > 100 µM
TGI [9]: > 100 µM
TGI [10]: > 100 µM

N#CC(C(=O)CCC(=O)Nc1cccc(C(F)(F)F)c1)c1ccccc1 (stereo unspecified)
TGI [1]: > 100 µM
TGI [2]: > 100 µM
TGI [3]: > 100 µM
TGI [4]: > 100 µM
TGI [5]: > 100 µM
TGI [6]: > 100 µM
TGI [7]: > 100 µM
TGI [8]: > 100 µM
TGI [9]: > 100 µM
TGI [10]: > 100 µM

CC(C)CCCCCCCCCCCCC(=O)NCC(=O)NC1C(C)OC(Nc2ncnc3nc[nH]c23)C(O)C1O (stereo unspecified)
GI50 [2]: 0.00121 µM
GI50 [3]: 0.0522 µM
TGI [3]: 0.00316 µM
GI50 [4]: 0.000324 µM
TGI [4]: 0.00219 µM and 0.00491 µM
GI50 [5]: 0.000334 µM
TGI [5]: 0.038 µM
GI50 [6]: 0.00319 µM
TGI [6]: 0.082 µM and < 0.0444 µM
TGI [8]: 0.00718 µM and 0.00618 µM
GI50 [9]: 0.0575 nM
TGI [9]: 0.497 µM
TGI [10]: 0.00859 µM

O=C(C=Nc1ccccc1S)c1ccco1
TGI [1]: 46.1 µM
GI50 [2]: 20.6 µM
TGI [2]: 36.6 µM
GI50 [3]: 17.7 µM
TGI [3]: 31.9 µM
TGI [5]: 18.7 µM
TGI [6]: 22.2 µM
TGI [7]: 31.7 µM
TGI [8]: 32.7 µM
TGI [9]: 34.7 µM
TGI [10]: 15.2 µM

CC[O-].CC[O-].O=C([CH-]C(=O)c1ccccc1)CCCCCCC(=O)[CH-]C(=O)c1ccccc1.[Ti+4]
GI50 [1]: > 100 µM
TGI [1]: > 100 µM
GI50 [2]: > 100 µM
TGI [2]: > 100 µM
GI50 [3]: > 100 µM
TGI [3]: > 100 µM
GI50 [4]: > 100 µM
TGI [4]: > 100 µM
GI50 [5]: > 100 µM
TGI [5]: > 100 µM
GI50 [6]: > 100 µM
TGI [6]: > 100 µM
GI50 [7]: > 100 µM
TGI [7]: > 100 µM
GI50 [8]: > 100 µM
TGI [8]: > 100 µM
GI50 [9]: > 100000 nM
TGI [9]: > 100 µM
GI50 [10]: > 100 µM
TGI [10]: > 100 µM
